Results: PubChem BioAssay (NCI)
“And” between values parts separate entries of the source, which are not always exact repeats. Equal entries are not always repeated.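 The compound was tested at five concentrations on cells cultured in 96-well plates, with a 48-hour exposure period. At the GI50, growth is halved. At the TGI there is no net growth.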

Key:
Assay in all cases: NCI tumour cell line growth inhibition, 48 h
[1] = system: SW-620 colon
[2] = system: OVCAR-8 ovarian
[3] = system: EKVX NSCLC
[4] = system: MCF7 breast
[5] = system: SNB-75 CNS
[6] = system: OVCAR-5 ovarian
[7] = system: HL-60(TB) leukemia
[8] = system: UO-31 renal
[9] = system: M14 melanoma
[10] = system: K-562 leukemia

SMILES	GI50 [1]	TGI [1]	GI50 [2]	TGI [2]	GI50 [3]	TGI [3]	GI50 [4]	TGI [4]	GI50 [5]	TGI [5]	GI50 [6]	TGI [6]	GI50 [7]	TGI [7]	GI50 [8]	TGI [8]	GI50 [9]	TGI [9]	GI50 [10]	TGI [10]
CC(C)C[C@@H](NC(=O)[C@@H](Cc1ccccc1)NC(=O)c1cnccn1)B1O[C@H]2[C@H](O)[C@@H](C(=O)NCCCC[C@@H]3NC(=O)[C@@H](Cc4ccccc4)NC(=O)[C@H](CC(=O)O)NC(=O)CNC(=O)[C@H](CCCN=C(N)N)NC3=O)O[C@@H](CN)[C@H]2O1	4.54 nM and 5 nM	239 nM and 652 nM	36.5 nM and 13.9 nM	622 nM and 98.7 nM	23.9 nM and 17.1 nM	568 nM and 545 nM	4.13 nM and 5 nM	789 nM	18.8 nM	51.6 nM	13.5 nM and 19.6 nM	97.8 nM and 799 nM	10.2 nM and 5 nM	69.8 nM and 74.3 nM	8.68 nM and 5 nM	89 nM and 36 nM	3.92 nM and 5 nM	116 nM and 14.1 nM	8.8 nM and 5 nM	–
N#CC1=C(N)Oc2cc3c(cc2C1c1cccs1)OCO3 (centres undefined)	356 nM	> 100000 nM	587 nM	> 52700 nM	1210 nM	> 100000 nM	343 nM	> 62300 nM	367 nM	4740 nM	2820 nM	> 85400 nM	247 nM	899 nM	1240 nM	> 100000 nM	387 nM	> 100000 nM	205 nM	> 100000 nM
COc1ccc(C(=O)Cn2c(C(=O)c3ccc(OC)cc3)nc3ccccc32)cc1	816 nM	> 100000 nM	5850 nM	> 100000 nM	18900 nM	> 100000 nM	1360 nM	> 100000 nM	2160 nM	> 54300 nM	> 25100 nM	> 100000 nM	436 nM	10800 nM	6270 nM	> 100000 nM	1590 nM	> 100000 nM	483 nM	> 100000 nM
COc1ccc(C(=O)Cn2c(C(=O)c3ccc(Cl)cc3)nc3ccccc32)cc1	4400 nM	> 100000 nM	> 100000 nM	> 100000 nM	> 42900 nM	> 100000 nM	3000 nM	> 100000 nM	20900 nM	> 100000 nM	> 66300 nM	> 100000 nM	3110 nM	> 53300 nM	> 51200 nM	> 100000 nM	3690 nM	> 39300 nM	3330 nM	> 100000 nM
